Measured values taken from ChEMBL document CHEMBL1201862, “PubChem BioAssay data set” (2004).
Calls of active or inactive are those of the source.

Tests used:
Vero = assay: host cell cytotoxicity of antiviral hits, dose response, cytotoxicity control for West Nile virus antiviral project, secondary assay (AID 1650); type: functional; conditions: Chlorocebus sabaeus
[1] = inhibitors of firefly luciferase expression or activity, dose response, H4 neuroglioma cells, luminescence (AID 1990); type: functional, cell-based
[2] = Luminescence Cell-Based Dose Response HTS to Identify Inhibitors of 5'UTR Stem-Loop Driven Prion Protein mRNA Translation in H4 Neuroglioblastoma Cells. [Related pubchem assays: 1827 (Project Summary), 1813 (Primary HTS)]; type: functional
[3] = inhibitors of SNCA 5'UTR-driven reporter translation, confirmation, H4 neuroglioma cells, luminescence (AID 1988); type: functional, cell-based
SUMO-activating enzyme = SUMO-activating enzyme (Homo sapiens, UniProt Q9UBT2); assay: SUMOylation inhibitor hit validation, confirmation, SUMOylation inhibitor project, biochemical, AlphaScreen (AID 2018); type: functional
Chain of SUMO-activating enzyme (Q9UBE0 whole entry): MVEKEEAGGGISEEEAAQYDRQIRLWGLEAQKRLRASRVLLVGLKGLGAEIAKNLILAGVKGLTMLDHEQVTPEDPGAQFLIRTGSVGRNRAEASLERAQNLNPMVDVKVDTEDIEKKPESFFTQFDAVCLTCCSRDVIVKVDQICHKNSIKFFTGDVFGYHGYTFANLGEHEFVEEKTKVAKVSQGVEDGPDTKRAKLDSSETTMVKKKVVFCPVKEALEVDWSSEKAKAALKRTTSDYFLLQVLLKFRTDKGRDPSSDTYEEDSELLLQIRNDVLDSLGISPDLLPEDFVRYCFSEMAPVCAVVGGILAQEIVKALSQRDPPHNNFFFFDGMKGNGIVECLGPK
Chain of SUMO-activating enzyme (Q9UBT2 whole entry): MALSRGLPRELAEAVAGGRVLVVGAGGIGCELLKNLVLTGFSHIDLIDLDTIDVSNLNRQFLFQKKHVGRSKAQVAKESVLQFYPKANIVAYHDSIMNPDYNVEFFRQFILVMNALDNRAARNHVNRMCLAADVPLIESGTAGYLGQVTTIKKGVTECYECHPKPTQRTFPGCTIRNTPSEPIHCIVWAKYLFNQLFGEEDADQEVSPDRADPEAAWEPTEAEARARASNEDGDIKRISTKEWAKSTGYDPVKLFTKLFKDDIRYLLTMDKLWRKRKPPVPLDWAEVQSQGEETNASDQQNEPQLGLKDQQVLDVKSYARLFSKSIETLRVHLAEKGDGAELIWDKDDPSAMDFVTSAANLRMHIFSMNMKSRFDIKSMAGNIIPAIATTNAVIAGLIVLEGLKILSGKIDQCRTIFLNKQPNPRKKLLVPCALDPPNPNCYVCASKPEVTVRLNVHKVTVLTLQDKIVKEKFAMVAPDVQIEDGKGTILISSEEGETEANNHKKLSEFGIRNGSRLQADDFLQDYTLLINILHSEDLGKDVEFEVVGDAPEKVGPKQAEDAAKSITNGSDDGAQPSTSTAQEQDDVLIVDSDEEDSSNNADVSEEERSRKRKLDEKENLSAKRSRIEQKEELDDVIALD

[4] = target: T1, Ubiquitin-conjugating enzyme E2 N (Homo sapiens, UniProt P61088); type: functional
T1 sequence (P61088 whole entry): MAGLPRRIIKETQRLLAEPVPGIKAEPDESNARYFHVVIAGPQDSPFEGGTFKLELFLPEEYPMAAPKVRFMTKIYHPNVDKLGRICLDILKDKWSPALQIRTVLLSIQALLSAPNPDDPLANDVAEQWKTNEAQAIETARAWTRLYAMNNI

[5] = target: T1, Ubiquitin-conjugating enzyme E2 N; type: functional; remark: listed apart in the source
Bcl-2-related protein A1 = target: T2, Bcl-2-related protein A1 (Mus musculus, UniProt Q07440); type: functional;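 also: confirmatory dose–response counterscreen on Bfl-1, used to check hits from a UBC13 polyubiquitin inhibitor campaign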
T2 sequence (Q07440 whole entry): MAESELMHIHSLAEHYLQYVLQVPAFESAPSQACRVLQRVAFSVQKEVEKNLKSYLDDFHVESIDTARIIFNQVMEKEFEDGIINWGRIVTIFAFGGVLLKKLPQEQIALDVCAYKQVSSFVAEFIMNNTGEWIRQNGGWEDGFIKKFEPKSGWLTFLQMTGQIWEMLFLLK

| Compound | CC50 (Vero) | EC50 [1] | EC50 [2] | EC50 [3] | IC50 (SUMO-activating enzyme) | IC50 [4] | IC50 [5] | IC50 (Bcl-2-related protein A1) |
| --- | --- | --- | --- | --- | --- | --- | --- | --- |
| COc1ccc(NC(=O)C(=O)N/N=C\c2ccc(CNC(=O)C(=O)Nc3ccc(C)c(C)c3)o2)c(OC)c1 | 15.1 µM (active) | 6.59 µM (active) | 9.34 µM (active) | 5.4 µM (active) | 30.4 µM (active) |  |  |  |
| CCC(=O)NC(=S)NNC(=O)c1ccc(NC(=O)c2ccccc2)cc1 |  |  |  |  |  | 11.4 µM (active) | 3.81 µM (active) | > 20 µM (inactive) |
| CCOc1ccc(N(C(=O)c2snc(C(N)=O)c2N)C(CC)C(=O)NC2CCCC2)cc1 (stereo unspecified) |  |  |  |  |  | 10.1 µM (active) | 12.3 µM (active) | > 20 µM (inactive) |
